{
  "source": "patent US20100297673A1",
  "about": "“METHODS AND COMPOSITIONS FOR UPREGULATION OF PEROXIREDOXIN ACTIVITY” (Reddy US Therapeutics, priority 2006, published 2010)",
  "key": {"TNF-α": {"tested_on": "TNF-α", "assay": "LPS-induced acute inflammation in rats, serum TNF-α ELISA", "assay_type": "in vivo, Sprague Dawley rats", "conditions": "60 mg/kg oral, LPS 1 mg/kg i.p., serum 1 hour after LPS", "method": "The compound A was orally administrated (60 mg/kg) to female Sprague Dawley rats followed by intraperitoneal administration lipopolysaccharide (LPS−1 mg/kg). Blood samples were collected 1 hour after LPS administration. TNF-α level in the serum was analyzed by using ELISA."}, "[1]": {"tested_on": "apolipoprotein E-null mice", "assay": "Hyperlipidemia model, apolipoprotein E-null mice", "assay_type": "in vivo", "conditions": "100 mg/kg oral once a day, 14 days, plasma, vs vehicle", "method": "Second, 8 week old apolipoprotein E-null mice were fed with normal chow diet and once a day orally dosed with carboxymethyl cellulose suspension alone or Compound A at 100 mg/kg (in carboxymethyl cellulose suspension) for 14 days. At the end of the study, plasma levels of cholesterol and triglycerides were determined."}, "[2]": {"tested_on": "Human Aortic Smooth Muscle cells", "assay": "Cellular peroxide levels (Amplex Red Kit)", "assay_type": "cell-based", "conditions": "3 uM compound, 30 min pre-incubation then 1 hour in growth media, cell lysates", "method": "H2O2 levels in human aortic smooth muscle cells (Rockland, Me. Clonetics, catalog #CC-2535) were measured using Amplex Red Kit (Molecular Probes). Smooth muscle cells were cultured in Clonetics growth media containing 5% fetal bovine serum. Cells at 70 percent confluence were starved overnight in serum free media and incubated for further 30 min in serum free media alone (control) or medium containing […] compound A (treatment) for 30 minutes. Growth media containing serum was then added and incubated for one hour. The cells were then lysed and H2O2 was assayed in lysates using Amplex Red Kit (Molecular Probes).\nTo establish that compound mediated activation of Peroxiredoxin will result in decreased H2O2, H2O2 levels were measured in untreated (control) and compound A treated smooth muscle cells (See FIG. 16). Human Aortic Smooth Muscle cells at 70 percent confluence were starved overnight in basal media and incubated for further 30 min in basal medium alone (control) or medium containing 3 uM compound (treatment) for 30 minutes. Growth media was then added to the control sample and growth media plus compound was added to the treatment group and incubated for one hour. The cells were then lysed and H2O2 was assayed in lysates using Amplex Red Kit (Molecular Probes)."}, "LDL-receptor null mice": {"tested_on": "LDL-receptor null mice", "assay": "Hyperlipidemia model, LDL-receptor null mice on cholesterol diet", "assay_type": "in vivo", "conditions": "100 mg/kg oral once a day, 15 days, plasma, vs vehicle", "method": "First, 14 week old LDL-receptor null mice were fed with a diet containing 0.8% cholesterol, 0.1% cholic acid and 20% coconut oil and once a day orally dosed with carboxymethyl cellulose suspension alone Compound A at 100 mg/kg (in carboxymethyl cellulose suspension) for 15 days. At the end of the study, plasma levels of cholesterol and triglycerides were determined using an enzymatic method (INFINITY™ Sigma Diagnostics)."}, "MCP-1": {"tested_on": "MCP-1", "assay": "MCP-1 ELISA in TNFα-induced endothelial cells", "assay_type": "cell-based", "conditions": "Homo sapiens, Endothelial cell, 0.5 ng/ml TNFα, overnight, read-out: inhibition of MCP-1 levels", "method": "MCP-1 ELISA is carried out using Quantikine Human MCP-1 kit as described by manufacturer (R&D Systems, Minneapolis, Minn., Catalog #DY279E). Mouse anti-human MCP-1 was used as the capture antibody and HRP-conjugated goat anti-human MCP-1 (Zymed (now part of Invitrogen) catalog #81-1620, Carlsbad, Calif.) was used as the detection antibody. Culture media were incubated with capture antibody (in 96 well) for 2 hours at room temperature. Wells were washed three times with wash buffer (0.05% tween-20 in phosphate buffered saline (PBS) pH 7.4) followed by incubation with detection antibody for 2 hours at room temperature. Color development was read at 450 nm in a Microplate reader.\nTNF-alpha (TNFα) (R&D Systems, Minneapolis, Minn., Catalogue No. 210-TA-010) is a pro-inflammatory cytokine implicated in the development of cardiovascular disease. Inflammatory markers produced in response to TNFα include monocyte chemoattractant protein—MCP-1, and vascular cell adhesion molecule—VCAM-1. […] To determine whether compound mediating the activation of Peroxiredoxin will result in decreased inflammation, MCP-1 and VCAM-1 levels were measured in TNFα-induced endothelial cells. […] After fixing the cells, VCAM-1 expression was detected with the primary and secondary antibodies. Colorimetric measurements with made with the Multiskan Ascent plate reader."}, "Peroxiredoxin": {"tested_on": "Peroxiredoxin", "assay": "Peroxiredoxin activity assay (NADPH oxidation coupled to H2O2 reduction)", "assay_type": "biochemical", "conditions": "addition to liver cells (FIG. 3); assay method states 500 nM compound A", "method": "An in vitro assay was developed to identify compounds that activated Peroxiredoxin (Peroxiredoxin inducers). In a 96-well plate, Peroxiredoxin (0.1 μg) was incubated with 5 μM of an unknown candidate compound and mixed with Hepes buffer containing NADPH, thioredoxin, thioredoxin reductase and hydrogen peroxide. When hydrogen peroxide was reduced by the activated Peroxiredoxin, the quantitative indicator, NADPH was converted to NADP. A decrease in NADPH was monitored by determining the absorption at […]. A decrease in NADPH was therefore, indicative of a Peroxiredoxin inducer.\nPeroxiredoxin-mediated reduction of H2O2 was coupled to oxidation of NADPH oxidation. NADPH oxidation was monitored as a decrease in absorbance at 340 nm (A340). The control reaction contained 50 mM Hepes-NaOH (pH 7.0), 1 mM EDTA, 2 μM thioredoxin, 150 nM thioredoxin reductase, H2O2 (8.8 mM), NADPH ([…]), and Peroxiredoxin (1 μM). The treatment group in addition contained 500 nM of compound A. The reaction was incubated for 30 seconds to 10 minutes and the change in absorbance was monitored."}, "VCAM-1": {"tested_on": "VCAM-1", "assay": "VCAM-1 ELISA in TNFα-induced endothelial cells", "assay_type": "cell-based", "conditions": "Homo sapiens, Endothelial cell, 0.5 ng/ml TNFα, overnight, read-out: inhibition of VCAM-1 levels", "method": "Endothelial cell surface VCAM-1 was measured following compound A treatments. The cell layer was washed once with PBS and fixed with methanol. After fixing the cells, VCAM-1 expression was detected with the primary VCAM-1 antibody (goat-anti-Human VCAM-1 antibody—catalog# BBA19, R&D Systems) and secondary anti-goat antibody conjugated to horse radish peroxidase. Colorimetric measurements with made with the Multiskan Ascent plate reader.\nTNF-alpha (TNFα) (R&D Systems, Minneapolis, Minn., Catalogue No. 210-TA-010) is a pro-inflammatory cytokine implicated in the development of cardiovascular disease. Inflammatory markers produced in response to TNFα include monocyte chemoattractant protein—MCP-1, and vascular cell adhesion molecule—VCAM-1. Endothelial cells are known to produce these markers in response TNFα. To determine whether compound mediating the activation of Peroxiredoxin will result in decreased inflammation, MCP-1 and VCAM-1 levels were measured in TNFα-induced endothelial cells. Cells were stimulated with 0.5 ng/ml of TNFα with or without compound A in basal media supplemented with 1% FBS. Each treatment condition was done in triplicate. […] After fixing the cells, VCAM-1 expression was detected with the primary and secondary antibodies. Colorimetric measurements with made with the Multiskan Ascent plate reader."}, "HepG2 cells [3]": {"tested_on": "HepG2 cells", "assay": "Dil-LDL uptake assay in HepG2 cells", "assay_type": "cell-based, human", "method": "Glass cover slips were autoclaved and aseptically transferred to 6-well tissue culture plates in a tissue culture hood. HepG2 cells were prepared from the T-75 flasks and were used to seed the 6-well plates (containing sterile cover slips) with 7.5×10^5 cells per well per 1 ml of growth media. The following day, the media was removed and the wells were washed 3 times with 2 mL DMEM+10% DLCS very gently. After washes, 2 ml of DMEM+10% (DLCS) was added to the wells and treatments continued for 24 hours. In selected experiments, cells were treated with 100 uM H2O2, control IgG or perlecan antibodies. The next day, the media was not changed and Dil LDL and DAPI were added to wells for uptake (5 hours). After the uptake was completed, the wells were washed gently 3 times with PBS (2 mL/well/wash) and after last wash, cells were fixed with 1 mL of 4% formaldehyde in PBS for 20 minutes. Wells were washed 5 times with water in excess. Cover slips were then mounted to slides using clearmount. Slides were stored at −20° C. The slides were imaged using the Nikon microscope and ColdSNAP-Pro camera. […] Images were quantitated using Image Pro-Plus software. The intensity per area of the fluorescent label was quantitated using the software and was used to generate the figure which is LDL uptake per area as a percent of the control."}, "Stat1": {"tested_on": "Stat1", "assay": "Stat1 activity assay (Stat1-luciferase reporter)", "assay_type": "cell-based, human", "conditions": "HepG2 transfected with Stat1-luciferase", "method": "HepG2 cells were prepared from the T-75 flasks and were used to seed the 24-well plates with 7.6×10^4 cells per well per 0.5 ml of DMEM+10% FBS. The next day, Stat1-lucuferase transfections were set up with Fugene6 according to the manufacturer's directions. In brief, transfection mixtures were prepared in DMEM in separate tubes from the reporter constructs also in DMEM. The samples incubated for 5 minutes at room temperature. Then, the constructs were mixed with the Fugene6 and incubated again for 30 minutes at room temperature. Then 50 μl transfection mix was added to each well in the existing media. Cells were allowed to incubate over night. In selected experiments, cells were treated with 100 uM H2O2 as well as with siPRDX1. After treatment, cells were lysed with the Promega lysis buffer. The wells were scraped and lysates were transferred into pre-chilled tubes and the lysates were cleared via centrifugation. 20 μl of cleared lysate was added to wells in 96 well clear plates and 100 μl of luciferase assay buffer was added to wells. Relative light units were counted using the PerkinElmer Envision.\nHepG2 were transiently transfected with a Stat1-luciferase reporter construct and subject to treatment with either H2O2 or siPeroxiredoxin 1. Bars show the mean±SD. Asterisks indicate statistical difference from the Mock group with significance values of p<0.05. […]"}, "HepG2 cells [4]": {"tested_on": "HepG2 cells", "assay": "Real time-PCR gene expression in HepG2 cells", "assay_type": "cell-based, human", "method": "HepG2 cells were prepared from the T-75 flasks and were used to seed the 24-well plates with 1.6×10^5 cells per well per 1 ml of growth media. The next day, the media was removed and 1 ml of low-serum growth media was added to each well for 24 hours. The following day, the low-serum media was removed. In selected experiments, cells were treated with 100 uM H2O2 or si-Peroxiredoxin I. Media was removed and cells were lysed with the lysis buffer from the Ambion RNAqueous kit and plate was placed on ice. RNA was extracted using the kit according to the protocol. The RNA was quantitated using a spectrophotometer and frozen at −80° C. The next day, the RNA was used for real-time PCR. The RNA was thawed and master mixes for each primer were prepared with the Stratagene Full Velocity SYBR Green QRT-PCR Master Mix. Master Mix with primer was added to the appropriate wells then RNA was added to appropriate wells. […]\nHepG2 cells were grown in T-75 flasks prior to study. […] Total cholesterol and apoB levels were measured using an enzymatic assay. Percentage change was evaluated by comparing to both the baseline and the vehicle at the end of the study. […] RNA was isolated according to the manufacturer's protocol (Qiagen) and analyzed for changes in gene expression normalized to actin using RT-PCR. […]"}, "[5]": {"conditions": "in vivo; cited from earlier work"}},
  "data": [
    {"smiles": "COc1ccc(Nc2nc(NC3CCCCCC3)nc(N3CCC(OC(=O)CCC(=O)O)CC3)n2)cc1Cl", "note": "[Compound A]", "values": [
      {"measurement": "inhibition of LPS-induced TNFα elevation", "setting": "TNF-α", "result": "completely inhibited"},
      {"measurement": "serum TNFα level", "setting": "TNF-α", "result": "undetectable"},
      {"measurement": "total triglycerides", "setting": "[1]", "result": "reduction"},
      {"measurement": "decrease in H2O2 levels vs untreated control", "setting": "[2]", "result": "approximately 77%"},
      {"measurement": "LDL cholesterol", "setting": "LDL-receptor null mice", "result": "reduction"},
      {"measurement": "VLDL cholesterol", "setting": "LDL-receptor null mice", "result": "reduction"},
      {"measurement": "total cholesterol", "setting": "LDL-receptor null mice", "result": "reduction"},
      {"measurement": "triglycerides", "setting": "LDL-receptor null mice", "result": "reduction"},
      {"measurement": "inhibition at 2.5 µM", "setting": "MCP-1", "result": 75, "unit": "%"},
      {"measurement": "increase in Peroxiredoxin activity over controls", "setting": "Peroxiredoxin", "result": 48, "unit": "%"},
      {"measurement": "inhibition at 2.5 µM", "setting": "VCAM-1", "result": 75, "unit": "%"}
    ]},
    {"smiles": "OO", "note": "[Compound H2O2, hydrogen peroxide]", "values": [
      {"measurement": "LDL uptake by liver cells", "setting": "HepG2 cells [3]", "result": "significantly decreased"},
      {"measurement": "Stat1 driven luciferase expression", "setting": "Stat1", "result": "significantly enhanced"},
      {"measurement": "LDLr mRNA levels", "setting": "HepG2 cells [4]", "result": "did not have a significant effect"},
      {"measurement": "perlecan expression levels", "setting": "HepG2 cells [4]", "result": "significantly reduced"}
    ]},
    {"smiles": "O=C1[C@H](CC[C@H](O)c2ccc(F)cc2)[C@@H](c2ccc(O)cc2)N1c1ccc(F)cc1", "note": "[Ezetimibe]", "values": [
      {"measurement": "cholesterol lowering", "setting": "[5]", "result": "15-18%"}
    ]}
  ]
}
